Article PMC7435865, “Antinociceptive and Cytotoxic Activity of Opioid Peptides with Hydrazone and Hydrazide Moieties at the C-Terminus” (Molecules, 2020)
Read-outs that look alike come from different tables or passages of the source. Where a SMILES comes first, the peptide text is derived from it. [ ]: non-standard residue; d: D form. The star is where a group is joined. X4 = O=C(NN*)c1cc(C(F)(F)F)cc(C(F)(F)F)c1; X3 = FC(F)(F)c1cc(C=NN*)cc(C(F)(F)F)c1

What was measured:
[1] = tested on: MeW155 human melanoma cells; test: melanoma cell number in culture after incubation with compound; assay type: cell-based; conditions: 50 µM, 96 h incubation
Experimental: The determination was performed by counting the cells of the MeW155 cell line after incubating them with 50 µM of the tested compounds.
The cells were plated in 24-well plates (5000 cells per well) and incubated for 24 h in Eagle’s medium containing 10% fetal bovine serum and 1% solution of penicillin and streptomycin. […] Control cells were treated with 1% DMSO only. After 96 h of incubation, the cell suspension was first lysed in lysis buffer (ReagentA, ChemoMetec A/S) and then stabilized in stabilization buffer (ReagentB, ChemoMetec A/S). The number of […] was quantified in a propidium iodide cassette with the use of a NucleoCounter® NC-100™ (ChemoMetec A/S) cell counter. The tests were performed in triplicate. The results were normalized so that the values obtained for the control were 100%.

[2] = molecular target: T1, neurokinin-1 receptor (NK1R) (Rattus norvegicus, UniProt P14600); test: competitive radioligand binding, [3H]Substance P displacement in rat brain homogenate
T1 construct: from tissue; host or cells: rat brain (membrane fractions of homogenate)
T1 sequence (P14600 whole entry): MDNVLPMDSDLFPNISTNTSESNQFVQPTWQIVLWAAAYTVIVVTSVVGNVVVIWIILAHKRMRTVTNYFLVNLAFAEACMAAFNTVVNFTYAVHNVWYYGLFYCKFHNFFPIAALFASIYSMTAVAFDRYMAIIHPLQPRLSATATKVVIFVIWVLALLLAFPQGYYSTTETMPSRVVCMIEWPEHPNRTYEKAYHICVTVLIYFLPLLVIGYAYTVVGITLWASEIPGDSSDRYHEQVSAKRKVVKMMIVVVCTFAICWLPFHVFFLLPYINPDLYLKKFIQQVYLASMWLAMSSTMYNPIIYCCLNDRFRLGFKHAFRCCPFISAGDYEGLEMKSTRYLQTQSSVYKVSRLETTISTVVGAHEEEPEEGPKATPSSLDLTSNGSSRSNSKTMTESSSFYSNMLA
Experimental: (§1) The synthesized compounds were assayed for binding affinity to the μ- and δ-opioid (MOR and DOR, respectively), as well as to the neurokinin-1 receptors (NK1R). The determinations were performed in rat brain homogenates by competitive displacement of selective radioligands. The results are shown in Table 2 as the half-maximal inhibitory concentration (IC50) with the standard error of the mean (SEM).
(§2) The binding affinity of compounds 1b–6a for MOR, DOR, and NK1R was determined in competitive radioligand binding assays according to the method previously described. The specific radioligands were [^3H]DAMGO (DAMGO, [Tyr^1-3,5-^3H])), [^3H][Ile^5,6]DELT II ([Ile^5,6]Deltorphin II, [Tyr^l-3,5-^3H]) and [^3H]Substance P (Substance P, [Leu-3,4,5-^3H]), for experiments with MOR, DOR, and NK1R, respectively. The first two were obtained from Isotope Laboratory, Biological Research Centre, Institute of Biochemistry (Szeged, Hungary), whereas the latter was purchased from Perkin Elmer (Perkin Elmer Inc., Krakow, Poland). Membrane fractions of rat brain homogenate were incubated at 25 °C for 60 min in the presence of radioligands (0.5 nM) specific for each receptor and increasing concentrations of the tested compounds. To measure non-specific binding, 10 μM naloxone was used as the competitor for opioid receptors and 10 μM cold Substance P was used for NK1R. The reactions were carried out in assay buffer containing Tris-HCl (pH 7.4) with an addition of bovine serum albumin (BSA) and protease inhibitors (bacitracin, bestatin, captopril). After the incubation, the binding reactions were terminated by rapid filtration with M-24 Cell Harvester (Brandel/USA) through GF/B Whatman glass fiber strips (presoaked with 0.5% PEI in order to minimize non-specific binding). Radioactivity retained on the filters was measured in MicroBeta LS on a Trilux scintillation counter (PerkinElmer, Santa Clara, CA, USA). The experiments were repeated at least two times in duplicate. The IC50 value for each compound was determined using GraphPad Prism.

[3] = molecular target: T2, δ opioid receptor (DOR) (Rattus norvegicus, UniProt P33533); test: competitive radioligand binding, [3H][Ile5,6]Deltorphin II displacement in rat brain homogenate
T2 construct: from tissue; host or cells: rat brain (membrane fractions of homogenate)
T2 sequence (P33533 whole entry): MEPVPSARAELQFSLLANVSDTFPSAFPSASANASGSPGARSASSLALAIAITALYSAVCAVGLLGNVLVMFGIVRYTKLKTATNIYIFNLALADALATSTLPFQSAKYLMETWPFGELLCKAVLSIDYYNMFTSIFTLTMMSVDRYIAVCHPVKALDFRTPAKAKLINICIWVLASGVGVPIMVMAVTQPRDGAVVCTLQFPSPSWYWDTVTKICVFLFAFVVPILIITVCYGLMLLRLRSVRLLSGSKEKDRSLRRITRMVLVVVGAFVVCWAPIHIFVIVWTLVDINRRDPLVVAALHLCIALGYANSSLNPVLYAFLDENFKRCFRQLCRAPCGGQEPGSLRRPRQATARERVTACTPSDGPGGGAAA
Experimental: as §1, §2

[4] = molecular target: T3, µ opioid receptor (MOR) (Rattus norvegicus, UniProt P33535); test: competitive radioligand binding, [3H]DAMGO displacement in rat brain homogenate
T3 construct: from tissue; host or cells: rat brain (membrane fractions of homogenate)
T3 sequence (P33535 whole entry): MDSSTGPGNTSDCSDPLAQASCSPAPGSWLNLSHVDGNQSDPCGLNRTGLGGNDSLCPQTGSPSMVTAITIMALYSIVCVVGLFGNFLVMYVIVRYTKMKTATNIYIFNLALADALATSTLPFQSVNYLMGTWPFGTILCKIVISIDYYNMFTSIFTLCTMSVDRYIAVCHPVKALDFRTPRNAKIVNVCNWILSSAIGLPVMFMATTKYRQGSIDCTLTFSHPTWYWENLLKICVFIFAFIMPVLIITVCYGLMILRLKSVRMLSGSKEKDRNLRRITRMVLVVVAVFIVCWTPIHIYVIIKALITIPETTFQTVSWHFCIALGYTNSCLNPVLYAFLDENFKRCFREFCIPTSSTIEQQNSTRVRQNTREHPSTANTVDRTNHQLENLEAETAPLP
Experimental: as §1, §2

[5] = tested on: male Wistar rats; test: tail flick test after intrathecal administration; assay type: in vivo, rat; conditions: for ED50 ± SEM: tail flick, i.t., n = 4–8
Experimental: Analgesic activity of compounds 1b–1d was measured in the tail flick test after intrathecal administration to rats, according to a procedure thoroughly described before. First, adult male Wistar rats weighing 200–250 g were prepared for intrathecal administration by the catherization method described previously by Yaksh and Rudy. Each experimental group consisted of 4–8 rats. Next, spinally mediated analgesia was assessed in the tail flick test utilizing the Plantar Test and Tail Flick Analgesia Meter apparatus (IITC Life Science Inc., Los Angeles, CA, USA). Withdrawal latency was measured in triplicate. The cut-off latencies were set at 7 s to avoid burns. The measurements were performed before the administration of the tested compound (time 0) and 5, 15, 30, 60, and 120 min after injection. The control group received injections of 0.9% NaCl. Data from in vivo studies are presented as means ± SEM and were analyzed using two-way repeated measures of ANOVA followed by Dunnett-corrected multiple comparisons. Significance was defined as * p < 0.033, ** p < 0.002, *** p < 0.001. Data were analyzed using GraphPad Prism. The responses were expressed as a percentage of a maximum possible effect (%MPE), calculated as ((T1 − T0)/(T2 − T0)) × 100, where T0 and T1 are latencies before and after drug injection, respectively, and T2 is the cut-off time. All experimental procedures were approved by The Local Committee for Ethics in Animal Experiments, permission no. 46/2013.

[6] = tested on: MOR; conditions: cited from earlier work
[7] = molecular target: DOR; parameters: method as in PMID 17927164; conditions: cited from earlier work
[8] = 0.5 nmol/rat i.t., 15 min after injection

Compound | effect on number of melanoma cells (in words) [1] | IC50 [2] [nM] | IC50 [3] [nM] | IC50 [4] [nM] | other results
C[C@@H](NC(=O)[C@@H](N)Cc1ccc(O)cc1)C(=O)NCC(=O)N[C@@H](Cc1c[nH]c2ccccc12)C(=O)NNC(=O)c1cc(C(F)(F)F)cc(C(F)(F)F)c1 [2b, H-Tyr-D-Ala-Gly-Trp-NH-NH-C(=O)-3,5-(CF3)2Ph] (H-Y[dA]GW-X4) | no effect | > 1000 | 467 ± 36.9 | 93.5 ± 32.8 | 
C[C@@H](NC(=O)[C@@H](N)Cc1ccc(O)cc1)C(=O)NCC(=O)N[C@@H](Cc1ccccc1)C(=O)NNC(=O)NN=Cc1cc(C(F)(F)F)cc(C(F)(F)F)c1 [1d, H-Tyr-D-Ala-Gly-Phe-NH-NH-C(=O)-NH-N=CH-3,5-(CF3)2Ph] | no effect | > 1000 | 44 ± 2.75 | 4.73 ± 0.02 | area under the time course curve (AUC) of analgesic effect ([5]; 0.5 nmol/rat i.t.): 5732 ± 1161 units; antinociceptive effect, % of maximal possible effect [5, 8]: ~ 80 % MPE; antinociceptive effect, % of maximal possible effect ([5]; 2 nmol/rat i.t., 120 min after administration): 39 ± 10 % MPE; antinociceptive effect, % of maximal possible effect ([5]; 4 nmol/rat i.t., 15 min): 99 ± 7 % MPE; ED50 ± SEM [5]: 0.32 ± 0.04 nmol/rat
C[C@@H](NC(=O)[C@@H](N)Cc1ccc(O)cc1)C(=O)N[C@@H](Cc1ccccc1)C(=O)N[C@@H](Cc1ccccc1)C(=O)NNC(=O)c1cc(C(F)(F)F)cc(C(F)(F)F)c1 [3b, H-Tyr-D-Ala-Phe-Phe-NH-NH-C(=O)-3,5-(CF3)2Ph] (H-Y[dA]FF-X4) | no effect | > 1000 | > 1000 | 391 ± 57.9 | DOR binding (in words) ([3]; rat brain homogenate): do not exhibit any appreciable DOR binding
C[C@@H](NC(=O)[C@@H](N)Cc1ccc(O)cc1)C(=O)NCC(=O)N[C@@H](Cc1ccccc1)C(=O)NNC(=O)Cc1cc(C(F)(F)F)cc(C(F)(F)F)c1 [1c, H-Tyr-D-Ala-Gly-Phe-NH-NH-C(=O)-CH2-3,5-(CF3)2Ph] | no effect | > 1000 | 162 ± 8.75 | 5.25 ± 1.14 | area under the time course curve (AUC) of analgesic effect ([5]; 0.5 nmol/rat i.t.): 1417 ± 730.1 units; antinociceptive effect, % of maximal possible effect [5, 8]: 31 ± 6 % MPE; antinociceptive effect, % of maximal possible effect ([5]; 1 nmol/rat i.t., 15 min): 85 ± 7 % MPE; ED50 ± SEM [5]: 0.56 ± 0.04 nmol/rat
C[C@@H](NC(=O)[C@@H](N)Cc1ccc(O)cc1)C(=O)N[C@@H](Cc1c[nH]c2ccccc12)C(=O)NNC(=O)c1cc(C(F)(F)F)cc(C(F)(F)F)c1 [4b, H-Tyr-D-Ala-Trp-NH-NH-C(=O)-3,5-(CF3)2Ph] | no effect |  |  |  | IC50 ([2]; rat brain homogenate, [3H]Substance P 0.5 nM, read-out: NK1R IC50 ± SEM): > 1000 nM; IC50 ([3]; rat brain homogenate, [3H][Ile5,6]DELT II 0.5 nM, read-out: DOR IC50 ± SEM): > 1000 nM; IC50 ([4]; rat brain homogenate, [3H]DAMGO 0.5 nM, read-out: MOR IC50 ± SEM): > 1000 nM
H-Tyr-D-Ala-Trp-Cyn |  |  |  |  | IC50 [6]: 77.6 nM
C[C@@H](O[C@H]1OCCN(Cc2n[nH]c(=O)[nH]2)[C@H]1c1ccc(F)cc1)c1cc(C(F)(F)F)cc(C(F)(F)F)c1 [aprepitant, reference compound] |  |  |  |  | number of MeW155 cells, % of the control value [1]: 78 ± 4 % of the control
N[C@@H](Cc1ccc(O)cc1)C(=O)N1CCC[C@H]1C(=O)N[C@@H](Cc1ccccc1)C(=O)N[C@@H](Cc1ccccc1)C(=O)NN=Cc1cc(C(F)(F)F)cc(C(F)(F)F)c1 [5a, H-Tyr-Pro-Phe-Phe-NH-N=CH-3,5-(CF3)2Ph] | significantly decrease the number of melanoma cells | > 1000 | > 1000 | 28.5 ± 9.41 | number of MeW155 cells, % of the control value [1]: ~ 2 % of the control; DOR binding (in words) ([3]; rat brain homogenate): do not exhibit any appreciable DOR binding
H2N-Tyr-D-Ala-Gly-Phe-NH-NH←Phe←Gly←D-Ala←Tyr-NH2 [biphalin] |  |  |  |  | IC50 [6]: 1.4 nM
H-Tyr-D-Ala-Gly-Phe-NH2 |  |  |  |  | Ki [7]: 300 nM; Ki ([6]; read-out: MOR Ki): 2.8 nM
N[C@@H](Cc1ccc(O)cc1)C(=O)N1CCC[C@H]1C(=O)N[C@@H](Cc1ccccc1)C(=O)NN=Cc1cc(C(F)(F)F)cc(C(F)(F)F)c1 [6a, H-Tyr-Pro-Phe-NH-N=CH-3,5-(CF3)2Ph] | significantly decrease the number of melanoma cells | > 1000 | > 1000 | 113 ± 7 | number of MeW155 cells, % of the control value [1]: 53 ± 3 % of the control; DOR binding (in words) ([3]; rat brain homogenate): do not exhibit any appreciable DOR binding
H-Y[dA]GW-NH2 |  |  |  |  | times weaker as a MOR binder than the [Phe4]-variant ([6]; versus H-Tyr-D-Ala-Gly-Phe-NH2): about 2 times
C[C@@H](NC(=O)[C@@H](N)Cc1ccc(O)cc1)C(=O)NCC(=O)N[C@@H](Cc1ccccc1)C(=O)NNC(=O)c1cc(C(F)(F)F)cc(C(F)(F)F)c1 [1b, H-Tyr-D-Ala-Gly-Phe-NH-NH-C(=O)-3,5-(CF3)2Ph] | no effect | > 1000 | 413 ± 105 | 111 ± 12.7 | area under the time course curve (AUC) of analgesic effect ([5]; 0.5 nmol/rat i.t.): 3421 ± 673 units; antinociceptive effect, % of maximal possible effect [5, 8]: 65 ± 6 % MPE
C[C@@H](NC(=O)[C@@H](N)Cc1ccc(O)cc1)C(=O)N[C@@H](Cc1ccccc1)C(=O)N[C@@H](Cc1ccccc1)C(=O)NN=Cc1cc(C(F)(F)F)cc(C(F)(F)F)c1 [3a, H-Tyr-D-Ala-Phe-Phe-NH-N=CH-3,5-(CF3)2Ph] (H-Y[dA]FF-X3) | significantly decrease the number of melanoma cells | 723 ± 58.2 | > 1000 | 90.4 ± 9.91 | number of MeW155 cells, % of the control value [1]: ~ 2 % of the control; DOR binding (in words) ([3]; rat brain homogenate): do not exhibit any appreciable DOR binding
H-Tyr-D-Ala-Gly-Phe-NH-NH2 |  |  |  |  | IC50 [6]: 4.7 nM
C[C@@H](NC(=O)[C@@H](N)Cc1ccc(O)cc1)C(=O)NCC(=O)N[C@@H](Cc1c[nH]c2ccccc12)C(=O)NN=Cc1cc(C(F)(F)F)cc(C(F)(F)F)c1 [2a, H-Tyr-D-Ala-Gly-Trp-NH-N=CH-3,5-(CF3)2Ph] (H-Y[dA]GW-X3) | significantly decrease the number of melanoma cells | > 1000 | 914 ± 43.5 | 112 ± 16.9 | number of MeW155 cells, % of the control value [1]: 20 ± 4 % of the control; MOR IC50 ratio 2a and 1a ([4]; ratio of IC50 of hydrazones 2a and 1a): about 10
H-Y[dA]FF-NH2 [TAPP] |  |  |  |  | IC50 ([6]; determined in the authors' laboratory): 5.1 nM
Tyr-Pro-Phe-Phe-NH2 [endomorphin-2] |  |  |  |  | IC50 [6]: 3.9 nM
C[C@@H](NC(=O)[C@@H](N)Cc1ccc(O)cc1)C(=O)N[C@@H](Cc1c[nH]c2ccccc12)C(=O)NN=Cc1cc(C(F)(F)F)cc(C(F)(F)F)c1 [4a, H-Tyr-D-Ala-Trp-NH-N=CH-3,5-(CF3)2Ph] | significantly decrease the number of melanoma cells | > 1000 | 621 ± 65.2 | 118 ± 40.2 | number of MeW155 cells, % of the control value [1]: 65 ± 10 % of the control
H-Tyr-Pro-Phe-NH2 |  |  |  |  | Ki ([6]; read-out: MOR inhibition constant Ki): 46.3 nM
H-Tyr-[dA]-Trp-OH |  |  |  |  | IC50 [6]: 977 nM
